Data as given in ChEMBL document CHEMBL5104195, “Discovery of Orally Bioavailable SOS1 Inhibitors for Suppressing KRAS-Driven Carcinoma” (J Med Chem, 2022).

Key:
[1] = Elimination rate constant in ICR mouse at 50 mg/kg, po measured up to 24 hrs by LC-MS/MS analysis; conditions: in vivo
[2] = Half life in ICR mouse at 50 mg/kg, po measured up to 24 hrs by LC-MS/MS analysis; conditions: in vivo
[3] = MRT in ICR mouse at 50 mg/kg, po measured up to 24 hrs by LC-MS/MS analysis; conditions: in vivo
[4] = Toxicity in BALB/c nude mouse xenografted with human MIA PaCa-21 cells expressing KRAS G12C mutant assessed as animal death at 50 mg/kg, po qd measured on day 21; conditions: in vivo, 504 h
[5] = Toxicity in BALB/c nude mouse xenografted with human MIA PaCa-21 cells expressing KRAS G12C mutant assessed as weight loss at 50 mg/kg, po qd measured on day 21; conditions: in vivo
[6] = Plasma protein binding in rat at 2 uM preincubated for 1 hr by balanced dialysis based LC-MS/MS analysis
[7] = Plasma protein binding in mouse at 2 uM preincubated for 1 hr by balanced dialysis based LC-MS/MS analysis
[8] = Plasma protein binding in dog at 2 uM preincubated for 1 hr by balanced dialysis based LC-MS/MS analysis
[9] = Plasma protein binding in monkey at 2 uM preincubated for 1 hr by balanced dialysis based LC-MS/MS analysis; conditions: rhesus monkey
[10] = target: T1, Cytochrome P450 3A4 (Homo sapiens, UniProt P08684); assay: Inhibition of CYP3A4 in human liver microsomes at 10 uM using midazolam as substrate preincubated for 10 mins followed by NADPH addition by LC/MS analysis
T1 sequence (P08684 whole entry): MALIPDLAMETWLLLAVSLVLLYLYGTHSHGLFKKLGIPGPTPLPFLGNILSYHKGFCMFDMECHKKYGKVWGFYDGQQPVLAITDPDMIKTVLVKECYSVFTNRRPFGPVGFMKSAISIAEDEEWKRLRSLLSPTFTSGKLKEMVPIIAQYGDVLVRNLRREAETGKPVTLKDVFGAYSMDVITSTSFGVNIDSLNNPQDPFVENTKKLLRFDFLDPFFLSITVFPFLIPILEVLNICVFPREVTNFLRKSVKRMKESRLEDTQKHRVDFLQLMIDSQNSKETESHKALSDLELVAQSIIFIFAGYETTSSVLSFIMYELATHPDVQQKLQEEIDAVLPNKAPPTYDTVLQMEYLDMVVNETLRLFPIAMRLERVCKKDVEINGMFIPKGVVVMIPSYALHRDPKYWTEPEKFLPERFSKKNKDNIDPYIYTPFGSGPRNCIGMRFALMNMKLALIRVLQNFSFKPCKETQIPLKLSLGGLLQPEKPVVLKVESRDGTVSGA

[11] = target: T2, Cytochrome P450 1A2 (Homo sapiens, UniProt P05177); assay: Inhibition of CYP1A2 in human liver microsomes at 10 uM using phenacetin as substrate preincubated for 10 mins followed by NADPH addition by LC/MS analysis
T2 sequence (P05177 whole entry): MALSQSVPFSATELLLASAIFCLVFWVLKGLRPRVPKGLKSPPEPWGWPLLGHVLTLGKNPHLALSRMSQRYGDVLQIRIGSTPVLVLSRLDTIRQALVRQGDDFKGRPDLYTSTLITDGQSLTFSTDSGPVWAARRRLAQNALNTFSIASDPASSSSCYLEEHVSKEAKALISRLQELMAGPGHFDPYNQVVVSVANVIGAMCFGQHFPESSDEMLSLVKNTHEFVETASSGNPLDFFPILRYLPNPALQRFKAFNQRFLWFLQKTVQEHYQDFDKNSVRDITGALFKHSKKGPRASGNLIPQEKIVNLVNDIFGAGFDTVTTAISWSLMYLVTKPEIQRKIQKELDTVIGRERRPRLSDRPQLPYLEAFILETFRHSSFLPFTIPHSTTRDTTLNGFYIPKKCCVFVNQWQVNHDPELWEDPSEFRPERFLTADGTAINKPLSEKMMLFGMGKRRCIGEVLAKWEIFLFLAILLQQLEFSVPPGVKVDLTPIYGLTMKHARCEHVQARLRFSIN

[12] = target: T3, Cytochrome P450 2C9 (Homo sapiens, UniProt P11712); assay: Inhibition of CYP2C9 in human liver microsomes at 10 uM using diclofenac as substrate preincubated for 10 mins followed by NADPH addition by LC/MS analysis
T3 sequence (P11712 whole entry): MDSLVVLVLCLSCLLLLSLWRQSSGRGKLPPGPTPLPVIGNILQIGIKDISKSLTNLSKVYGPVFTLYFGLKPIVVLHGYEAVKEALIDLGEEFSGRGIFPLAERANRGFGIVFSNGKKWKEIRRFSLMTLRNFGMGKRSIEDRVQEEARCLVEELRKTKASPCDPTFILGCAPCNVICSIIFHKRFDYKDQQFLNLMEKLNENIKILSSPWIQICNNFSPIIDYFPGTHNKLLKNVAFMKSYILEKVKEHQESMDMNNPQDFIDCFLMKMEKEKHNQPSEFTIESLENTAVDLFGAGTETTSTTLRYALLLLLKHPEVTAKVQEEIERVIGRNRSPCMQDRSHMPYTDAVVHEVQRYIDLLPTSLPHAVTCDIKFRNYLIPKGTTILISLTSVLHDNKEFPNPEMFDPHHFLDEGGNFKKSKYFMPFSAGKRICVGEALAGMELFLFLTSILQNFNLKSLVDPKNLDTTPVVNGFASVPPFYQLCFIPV

[13] = target: T4, Cytochrome P450 2C8 (Homo sapiens, UniProt P10632); assay: Inhibition of CYP2C8 in human liver microsomes at 10 uM using amodiaquine as substrate preincubated for 10 mins followed by NADPH addition by LC/MS analysis
T4 sequence (P10632 whole entry): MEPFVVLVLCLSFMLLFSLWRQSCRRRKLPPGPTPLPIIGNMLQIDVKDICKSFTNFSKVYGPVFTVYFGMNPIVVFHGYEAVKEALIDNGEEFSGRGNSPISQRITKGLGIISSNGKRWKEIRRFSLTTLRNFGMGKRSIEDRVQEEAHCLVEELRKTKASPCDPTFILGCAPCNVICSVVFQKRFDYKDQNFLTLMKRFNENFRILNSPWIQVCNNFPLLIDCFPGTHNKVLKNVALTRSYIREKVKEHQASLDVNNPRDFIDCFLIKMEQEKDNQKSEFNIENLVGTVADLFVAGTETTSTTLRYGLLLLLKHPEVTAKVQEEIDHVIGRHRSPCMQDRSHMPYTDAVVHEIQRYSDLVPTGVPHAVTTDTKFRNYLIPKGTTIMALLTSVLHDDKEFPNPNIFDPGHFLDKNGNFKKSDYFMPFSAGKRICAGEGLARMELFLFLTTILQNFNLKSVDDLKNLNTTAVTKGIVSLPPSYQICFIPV

[14] = target: T5, Cytochrome P450 2D6 (Homo sapiens, UniProt P10635); assay: Inhibition of CYP2D6 in human liver microsomes at 10 uM using dextromethorphan as substrate preincubated for 10 mins followed by NADPH addition by LC/MS analysis
T5 sequence (P10635 whole entry): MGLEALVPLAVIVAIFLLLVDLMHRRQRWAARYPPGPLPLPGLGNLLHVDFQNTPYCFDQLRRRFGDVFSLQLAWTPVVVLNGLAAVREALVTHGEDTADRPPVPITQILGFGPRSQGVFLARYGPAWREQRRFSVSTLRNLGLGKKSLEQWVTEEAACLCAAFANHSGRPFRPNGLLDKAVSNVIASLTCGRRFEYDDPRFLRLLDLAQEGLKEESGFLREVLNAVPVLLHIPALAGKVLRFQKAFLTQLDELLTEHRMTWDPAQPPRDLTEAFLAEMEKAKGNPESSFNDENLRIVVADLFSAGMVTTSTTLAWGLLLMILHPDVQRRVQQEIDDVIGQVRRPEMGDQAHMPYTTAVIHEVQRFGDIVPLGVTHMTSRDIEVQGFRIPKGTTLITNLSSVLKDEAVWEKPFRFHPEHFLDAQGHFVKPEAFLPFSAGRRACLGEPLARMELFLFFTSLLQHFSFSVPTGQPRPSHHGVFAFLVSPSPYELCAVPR

[15] = target: T3, Cytochrome P450 2C9; assay: Time-dependent inhibition of CYP2C9 (unknown origin) at 2 ul pre-incubated for 30 mins in presence or absence of NADPH incubated for 10 mins by LC/MS analysis
[16] = target: T4, Cytochrome P450 2C8; assay: Time-dependent inhibition of CYP2C8 (unknown origin) at 2 ul pre-incubated for 30 mins in presence or absence of NADPH incubated for 10 mins by LC/MS analysis
[17] = target: T5, Cytochrome P450 2D6; assay: Time-dependent inhibition of CYP2D6 (unknown origin) at 2 ul pre-incubated for 30 mins in presence or absence of NADPH incubated for 10 mins by LC/MS analysis
[18] = target: T1, Cytochrome P450 3A4; assay: Time-dependent inhibition of CYP3A4 (unknown origin) at 2 ul pre-incubated for 30 mins in presence or absence of NADPH incubated for 10 mins by LC/MS analysis
[19] = Apparent permeability across apical to basolateral side in dog MDCKII-MDR1 cells; conditions: MDCK-MDR1
[20] = Apparent permeability across basolateral side to apical side in dog MDCKII-MDR1 cells; conditions: MDCK-MDR1
[21] = Cardiotoxicity in Patient-specific iPSC-derived cardiomyocytes assessed as decrease in maximum depolarization rate of action potential at 0.03 to 3 uM by patch clamp assay; conditions: human, cardiac muscle cell
[22] = Cardiotoxicity in Patient-specific iPSC-derived cardiomyocytes assessed as decrease in spontaneous beating of myocardial cell at 3 uM by patch clamp assay; conditions: human, cardiac muscle cell
[23] = Cardiotoxicity in Patient-specific iPSC-derived cardiomyocytes assessed as decrease in spontaneous beating of myocardial cell at 10 uM by patch clamp assay; conditions: human, cardiac muscle cell
[24] = Cardiotoxicity in Patient-specific iPSC-derived cardiomyocytes assessed as decrease in action potential duration by patch clamp assay; assay type: toxicity, cell-based; conditions: human, cardiac muscle cell
[25] = Half life in Sprague-Dawley rat at 2 mg/kg, iv measured upto 24 hrs by LC/MS/MS analysis; conditions: in vivo
[26] = Half life in Sprague-Dawley rat at 10 mg/kg, po measured upto 24 hrs by LC/MS/MS analysis; conditions: in vivo
[27] = Half life in overnight fasted Beagle dog at 20 mg/kg, po measured upto 24 hrs by LC/MS/MS analysis; conditions: in vivo
[28] = rat, in vivo, iv, 2 mg/kg, 24 h
[29] = rat, in vivo, po, 10 mg/kg, 24 h
[30] = rat, in vivo, iv, 2 mg/kg, 24 h; remark: listed apart in the source
[31] = rat, in vivo, po, 10 mg/kg, 24 h; remark: listed apart in the source
[32] = rat, in vivo, iv, 2 mg/kg, 24 h; remark: listed apart in the source
[33] = rat, in vivo, po, 10 mg/kg, 24 h; remark: listed apart in the source
[34] = dog, in vivo, po, 20 mg/kg, 24 h
[35] = dog, in vivo, po, 20 mg/kg, 24 h; remark: listed apart in the source
[36] = dog, in vivo, po, 20 mg/kg, 24 h; remark: listed apart in the source
[37] = in vivo; conditions: ICR, mouse, po, 50 mg/kg
[38] = in vivo; conditions: ICR, mouse, po, 50 mg/kg; remark: listed apart in the source
[39] = in vivo; conditions: ICR, mouse, po, 50 mg/kg; remark: listed apart in the source
[40] = in vivo; conditions: Sprague-Dawley, rat, po, 10 mg/kg
[41] = in vitro; conditions: human, liver microsomes
[42] = in vitro; conditions: rat, liver microsomes
[43] = in vitro; conditions: mouse, liver microsomes
[44] = in vitro; conditions: dog, liver microsomes
[45] = in vitro; conditions: rhesus monkey, liver microsomes

Cc1nc(N[C@H](C)c2cccc(C(F)F)c2F)c2cc3c(cc2n1)OCC[C@H]1CN(CC(F)(F)F)CCN31
k el at 24 h [1]: 4.75e-05 s⁻¹ | half-life at 24 h [2]: 4.13 h | MRT at 24 h [3]: 5.5 h | Activity [4]: Non-Toxic | Activity [5]: Non-Toxic | fraction unbound at 1 h, 2 µM [6]: 0.001 | fraction unbound at 1 h, 2 µM [7]: 0.001 | fraction unbound at 1 h, 2 µM [8]: 0.002 | fraction unbound at 1 h, 2 µM [9]: 0.001 | IC50 [10]: > 100 µM | IC50 [11]: > 100 µM | IC50 [12]: 15.4 µM | IC50 [13]: 45.2 µM | IC50 [14]: 6.1 µM | IC50 [15]: 14.6 µM | IC50 [16]: 39.1 µM | IC50 [17]: 4.3 µM | IC50 [18]: > 100 µM | Papp A→B [19]: 0.26 ×10⁻⁶ cm/s | Papp B→A [20]: 0.78 ×10⁻⁶ cm/s | Activity [21]: Toxic | Activity [22]: Toxic | Activity [23]: Toxic | Activity [24]: Toxic | t1/2 [25]: 5.35 h | t1/2 [26]: 2 h | t1/2 [27]: 6.74 h | Tmax [28]: 4.8 min | Tmax [29]: 2.33 h | Cmax [30]: 518 ng/mL | Cmax [31]: 109 ng/mL | AUC [32]: 596 ng·h/mL | AUC [33]: 563 ng·h/mL | Tmax [34]: 1.17 h | Cmax [35]: 232 ng/mL | AUC [36]: 1322 ng·h/mL | Tmax at 24 h [37]: 0.833 h | Cmax at 24 h [38]: 2260 ng/mL | AUC at 24 h [39]: 19900 ng·h/mL | bioavailability at 24 h [40]: 18.8% | CLint scaled at 1 h, 1 µM [41]: 442 mL/min/kg | CLint scaled at 1 h, 1 µM [42]: 516 mL/min/kg | CLint scaled at 1 h, 1 µM [43]: 436 mL/min/kg | CLint scaled at 1 h, 1 µM [44]: 12 mL/min/kg | CLint scaled at 1 h, 1 µM [45]: 396 mL/min/kg
